From patent US4396543A
Values after ≈ are worked out from the molar mass of the structure shown. Values joined by “and” are separate entries in the source; they are usually repeats but may differ in a detail not shown here. Identical values can stand only once.

Experiments:
[1] = test system: Streptococcus Group D 9960; assay: agar-dilution MIC; type: cell-based; settings: two values = two experiments, 2 median of five, 19 median of three
Protocol: (§1) In Table VII activity is measured by the minimal inhibitory concentration (MIC), i.e. the lowest concentration of compound at which growth of the microorganism is inhibited by the test compound.

[2] = test system: Staphylococcus aureus X400; assay: agar-dilution MIC; type: cell-based; settings: Staphylococcus aureus X400, methicillin-resistant strain; two values = two experiments; 2 median of five, 19 median of three
Protocol: as §1

Staphylococcus aureus = assay: in vivo experimental bacterial infection, ED50; settings: mice, two doses subcutaneously; two values = two experiments
[3] = test system: Staphylococcus epidermidis EPI2; assay: agar-dilution MIC; type: cell-based; settings: two values = two experiments, 2 median of five, 19 median of three
[4] = test system: Streptococcus Group D X66; assay: agar-dilution MIC; type: cell-based; settings: two values = two experiments, 2 median of five, 19 median of three
Protocol: as §1

[5] = test system: Staphylococcus aureus V41; assay: agar-dilution MIC; type: cell-based; settings: Staphylococcus aureus V41, penicillin-resistant strain; two values = two experiments; 2 median of five, 19 median of three
Protocol: as §1

Streptococcus pyogenes = assay: in vivo experimental bacterial infection, ED50; settings: mice; for ED50 Values Streptococcus pyogenes Oral: two doses orally; for ED50 Values Streptococcus pyogenes Subcutaneous: two doses subcutaneously, two values = two experiments
[6] = test system: Staphylococcus epidermidis EPI1; type: cell-based; settings: two values = two experiments, 2 median of five, 19 median of three
[7] = test system: Staphylococcus aureus X1.1; assay: agar-dilution MIC; type: cell-based; settings: two values = two experiments, 2 median of five, 19 median of three experiments
Protocol: as §1

toxicity test, LD50 = settings: mouse, in vivo, iv; administered intravenously; read-out: LD50 (mg/kg) in Mice
[8] = test system: Streptococcus pyogenes C203; assay: agar-dilution MIC; type: cell-based; settings: two values = two experiments, 2 median of five, 19 median of three
[9] = test system: Streptococcus pneumoniae Park I; type: cell-based; settings: two values = two experiments, 2 median of five, 19 median of three
Protocol: as §1

Compound | MIC [1] [µg/mL] | MIC [2] [µg/mL] | ED50 Values Staphylococcus aureus Subcutaneous (Staphylococcus aureus) | MIC [3] [µg/mL] | MIC [4] [µg/mL] | MIC [5] [µg/mL] | ED50 Values Streptococcus pyogenes Oral (Streptococcus pyogenes) [mg/kg × 2] | ED50 Values Streptococcus pyogenes Subcutaneous (Streptococcus pyogenes) | MIC [6] [µg/mL] | MIC [7] [µg/mL] | LD50 (toxicity test, LD50) [mg/kg] | MIC [8] [µg/mL] | MIC [9] [µg/mL]
CCCCCCCCCCCC(=O)N[C@H](Cc1ccccc1)C(=O)N[C@@H](Cc1c[nH]c2ccccc12)C(=O)N[C@H](CC(N)=O)C(=O)N[C@@H](CC(=O)O)C(=O)N[C@@H]1C(=O)NCC(=O)N[C@@H](CCCN)C(=O)N[C@@H](CC(=O)O)C(=O)N[C@H](C)C(=O)N[C@@H](CC(=O)O)C(=O)NCC(=O)N[C@H](CO)C(=O)N[C@@H]([C@H](C)CC(=O)O)C(=O)N[C@@H](CC(=O)c2ccccc2N)C(=O)O[C@@H]1C [Compound 1] | 0.5 (≈ 0.278 µM) | 1 (≈ 0.557 µM) | 1.4 mg/kg × 2 and 2.05 mg/kg × 2 | 1 (≈ 0.557 µM) | 1 (≈ 0.557 µM) | 0.5 (≈ 0.278 µM) | > 200 | < 0.25 mg/kg × 2 and 0.21 mg/kg × 2 | 2 (≈ 1.11 µM) | 0.5 (≈ 0.278 µM) | 250 | 0.125 (≈ 0.0696 µM) | –
CCCCCCCCCCCC(=O)NCCCCC(=O)N[C@@H](Cc1c[nH]c2ccccc12)C(=O)N[C@H](CC(N)=O)C(=O)N[C@@H](CC(=O)O)C(=O)N[C@@H]1C(=O)NCC(=O)N[C@@H](CCCN)C(=O)N[C@@H](CC(=O)O)C(=O)N[C@H](C)C(=O)N[C@@H](CC(=O)O)C(=O)NCC(=O)N[C@H](CO)C(=O)N[C@@H]([C@H](C)CC(=O)O)C(=O)N[C@@H](CC(=O)c2ccccc2N)C(=O)O[C@@H]1C [Compound 2] | 8 (≈ 4.58 µM) | 4 (≈ 2.29 µM) | 0.65 mg/kg × 2 and 0.93 mg/kg × 2 | 2 (≈ 1.14 µM) | 32 (≈ 18.3 µM) | 4 (≈ 2.29 µM) | 117 | – | 4 (≈ 2.29 µM) | 4 (≈ 2.29 µM) | > 600 | 1 (≈ 0.572 µM) | 4 (≈ 2.29 µM)
CCCCCCCCCCCC(=O)Nc1ccc(C(=O)N[C@@H](Cc2c[nH]c3ccccc23)C(=O)N[C@H](CC(N)=O)C(=O)N[C@@H](CC(=O)O)C(=O)N[C@@H]2C(=O)NCC(=O)N[C@@H](CCCN)C(=O)N[C@@H](CC(=O)O)C(=O)N[C@H](C)C(=O)N[C@@H](CC(=O)O)C(=O)NCC(=O)N[C@H](CO)C(=O)N[C@@H]([C@H](C)CC(=O)O)C(=O)N[C@@H](CC(=O)c3ccccc3N)C(=O)O[C@@H]2C)cc1 [Compound 4] | – | 8 (≈ 4.53 µM) | < 5 mg/kg × 2 | – | – | – | > 200 | 18.8 mg/kg × 2 | – | 4 (≈ 2.26 µM) | > 300 | – | –
CCCCCCCC(=O)N[C@@H](Cc1ccccc1)C(=O)N[C@@H](Cc1c[nH]c2ccccc12)C(=O)N[C@H](CC(N)=O)C(=O)N[C@@H](CC(=O)O)C(=O)N[C@@H]1C(=O)NCC(=O)N[C@@H](CCCN)C(=O)N[C@@H](CC(=O)O)C(=O)N[C@H](C)C(=O)N[C@@H](CC(=O)O)C(=O)NCC(=O)N[C@H](CO)C(=O)N[C@@H]([C@H](C)CC(=O)O)C(=O)N[C@@H](CC(=O)c2ccccc2N)C(=O)O[C@@H]1C [Compound 17] | 32 (≈ 18.4 µM) | 8 (≈ 4.6 µM) | 2.58 mg/kg × 2 | 8 (≈ 4.6 µM) | 128 (≈ 73.6 µM) | 8 (≈ 4.6 µM) | > 200 | 1.48 mg/kg × 2 | 8 (≈ 4.6 µM) | 4 (≈ 2.3 µM) | 450 | 2 (≈ 1.15 µM) | –
CCCCCCCCC(=O)N[C@@H](Cc1ccccc1)C(=O)N[C@@H](Cc1c[nH]c2ccccc12)C(=O)N[C@H](CC(N)=O)C(=O)N[C@@H](CC(=O)O)C(=O)N[C@@H]1C(=O)NCC(=O)N[C@@H](CCCN)C(=O)N[C@@H](CC(=O)O)C(=O)N[C@H](C)C(=O)N[C@@H](CC(=O)O)C(=O)NCC(=O)N[C@H](CO)C(=O)N[C@@H]([C@H](C)CC(=O)O)C(=O)N[C@@H](CC(=O)c2ccccc2N)C(=O)O[C@@H]1C [Compound 18] | 8 (≈ 4.56 µM) | 4 (≈ 2.28 µM) | 1.38 mg/kg × 2 | 2 (≈ 1.14 µM) | 32 (≈ 18.2 µM) | 2 (≈ 1.14 µM) | 184 | 0.59 mg/kg × 2 | 4 (≈ 2.28 µM) | 2 (≈ 1.14 µM) | > 600 | 0.5 (≈ 0.285 µM) | –
